Assay results reported in patent publication US4447455A, “Oral urolithiasis remedy” (Madaus and Company, priority 1982, dated 1984).
Entries after “also recorded” stand apart in the source; their conditions may differ.

Tests used:
oxalate urolithiasis = experiment: therapeutic use in oxalate urolithiasis (general statements); format: in vivo, human; settings: general statement
[1] = acute toxicity / tolerability in the mouse; format: in vivo; settings: alizarin, one gram per kilogram
[2] = in vitro crystallization of calcium oxalate
[3] = acute toxicity / tolerability in the rat; format: in vivo; settings: alizarin, up to 400 mg/kg
[4] = overall summary of pharmacological and toxicological tests; format: in vivo
[5] = test system: edema of the paws of rats; experiment: anti-inflammatory action: edema of the paws induced by viscarin-carrageenin; format: in vivo, rat; settings: AMDK 600 mg/kg p.o.; for Edema volume: 10 animals
Description: The possibility of any effect on inflammatory reactions was tested on edema of the paws of rats (groups of ten rats each) induced by viscarin-carrageenin. […] The measurement of the course of the edema was performed at 3, 5, 7 and 24 hours after the edematization. […] Where the variances between the experimental and control groups were unequal, the more rigorous t test (according to SNEDECOR) was applied for the judgment.

Compound	effect on the formation of stones (oxalate urolithiasis)	effectiveness in treatment of urolithiasis (oxalate urolithiasis)	tolerance (oxalate urolithiasis)	tolerance of acute administration [1]	action on the crystallization of calcium oxalate [2]	tolerance of acute administration [3]	tolerance in the acute toxicity test [4]	Percentage of inhibition (edema) ([5]; 3 hours after edematization)	Edema volume ([5]; 3 hours after edematization)	Percentage of inhibition (edema) ([5]; 5 hours after edematization)	Edema volume ([5]; 5 hours after edematization)	Percentage of inhibition (edema) ([5]; 7 hours after edematization)	Edema volume ([5]; 7 hours after edematization)	Percentage of inhibition (edema) ([5]; 24 hours after edematization)	Edema volume ([5]; 24 hours after edematization)
O=C1c2ccccc2C(=O)c2c1ccc(O)c2O [alizarin]	decided inhibitive effect on the formation of stones	decidedly effective	easily tolerated; also recorded: very well tolerated	tolerated without producing symptoms	inhibiting action on the crystallization of calcium oxalate	tolerated without producing symptoms	extremely well tolerated								
Sodium escinate								41.4 Percentage	46.5 mL	37.2 Percentage	50.7 mL	39.1 Percentage	46.6 mL	40.9 Percentage	14.9 mL
